Experimental data from ChEMBL document CHEMBL1201862, “PubChem BioAssay data set” (2004).
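These data come from cells grown in 96-well plates and exposed to compound for 48 hours at five concentrations. At the GI50, growth is halved.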 Activity calls are given as the source filed them. Rule as the data show it: active = GI50 up to about 1.1 µM and inactive = higher.

How the values were obtained:
Assay in all cases: DTP human tumour cell line panel, 48 h
[1] = test system: NCI-H460
[2] = test system: SF-539
[3] = test system: DMS-114
[4] = test system: LXFL 529
[5] = test system: UACC-257
[6] = test system: COLO 205
[7] = test system: KM12
[8] = test system: HCT-116
[9] = test system: SF-268
[10] = test system: UACC-62
[11] = test system: U-251
[12] = test system: SW-620
[13] = test system: HL-60
[14] = test system: KM-20L2
[15] = test system: RPMI-8226
[16] = test system: CAKI-1
[17] = test system: LOX IMVI

Measured: GI50

NCCCCNCCCNC(=O)c1nc(-c2csc(CCN)n2)sc1Cl
inactive: [1] > 100 µM | [2] > 100 µM | [3] > 100 µM | [4] 17.9 µM | [5] > 100 µM | [6] > 100 µM | [7] > 100 µM | [8] > 100 µM | [9] 62.7 µM | [10] > 100 µM | [11] > 100 µM | [12] > 100 µM | [13] > 100 µM | [14] > 100 µM | [15] > 100 µM | [16] > 100 µM

COC(=O)C1=C(C[S+]([O-])c2ccccc2[N+](=O)[O-])ON(C)C1c1ccccc1 (configuration not stated)
inactive: [1] > 100 µM | [2] 27.3 µM | [3] 24.7 µM | [4] 42 µM | [5] 35.2 µM | [17] 13.3 µM | [6] 43.7 µM | [7] 55.5 µM | [8] 25.5 µM | [9] 27.5 µM | [10] 28.8 µM | [11] 34.4 µM | [12] 25.4 µM | [13] 17.4 µM | [14] 21.5 µM | [15] 34 µM | [16] 45.7 µM

O=[N+]([O-])c1nccn1COCCF
inactive: [1] > 100 µM | [2] > 100 µM | [3] > 100 µM | [4] > 100 µM | [5] > 100 µM | [17] > 100 µM | [6] > 100 µM | [7] > 100 µM | [8] > 100 µM | [9] > 100 µM | [10] > 100 µM | [11] > 100 µM | [12] > 100 µM | [13] > 100 µM | [14] > 100 µM | [15] > 100 µM | [16] > 100 µM

C[n+]1c2ccccc2c(NC(CCCNC(=N)N)C(=O)O)c2ccccc21 (configuration not stated)
inactive: [1] > 100 µM | [2] > 100 µM | [3] > 100 µM | [4] > 100 µM | [5] > 100 µM | [6] > 100 µM | [7] > 100 µM | [8] > 100 µM | [9] > 100 µM | [10] > 100 µM | [11] > 100 µM | [12] > 100 µM | [13] 39.1 µM | [14] > 100 µM | [15] 7.55 µM | [16] > 100 µM

CC(C)OP(=O)(OC(C)C)/C(=N/Nc1ccc([N+](=O)[O-])cc1)NN
inactive: [1] > 100 µM | [2] > 100 µM | [3] 61.1 µM | [4] 41.5 µM | [5] 24.9 µM | [17] > 100 µM | [6] > 100 µM | [7] > 100 µM | [8] > 100 µM | [9] > 100 µM | [10] 34.4 µM | [11] > 100 µM | [12] > 100 µM | [13] > 100 µM | [14] > 100 µM | [15] 88.3 µM | [16] > 100 µM

O=C1C(Cl)=C(Cl)C(=O)N1C1C2CC3CC(C2)CC1C3 (configuration not stated)
inactive: [1] > 100 µM | [2] > 100 µM | [3] > 100 µM | [4] 47.5 µM | [5] > 100 µM | [17] > 100 µM | [6] 32.8 µM | [8] > 100 µM | [9] > 100 µM | [10] > 100 µM | [11] > 100 µM | [12] 47 µM | [13] 24.5 µM | [14] > 100 µM | [15] 27 µM | [16] 38.3 µM

Cc1ccc(C2C(Cl)C(=O)N2NC(=O)c2ccc(N)cc2)cc1 (configuration not stated)
inactive: [1] 17.6 µM | [2] 23.9 µM | [3] 10.2 µM | [4] 15.5 µM | [5] 24.3 µM | [17] 11.2 µM | [6] 22.6 µM | [7] 25.5 µM | [8] 15 µM | [10] 15.8 µM | [11] 14.6 µM | [12] 21 µM | [13] 12.1 µM | [14] 23.8 µM | [15] 24.2 µM | [16] 20.1 µM

CC/C(SC)=[N+](\C)[O-]
inactive: [1] > 100 µM | [2] > 100 µM | [3] > 39 µM | [4] > 100 µM | [5] > 100 µM | [17] > 41.3 µM | [6] > 44.8 µM | [7] > 100 µM | [8] > 46.9 µM | [9] > 100 µM | [10] > 100 µM | [11] > 100 µM | [12] > 100 µM | [13] 17.9 µM | [14] > 100 µM | [15] > 93.1 µM | [16] > 100 µM

CC(C)(C)/N=C/N1C=Cc2nc3ccccc3cc2C1
inactive: [1] 32.6 µM | [2] > 100 µM | [3] > 100 µM | [4] > 100 µM | [5] > 100 µM | [17] 26.7 µM | [6] 36.9 µM | [7] > 100 µM | [8] > 100 µM | [9] > 100 µM | [10] > 100 µM | [11] > 100 µM | [12] 19.5 µM | [13] 75.7 µM | [14] > 100 µM | [16] > 100 µM

CC1=C(O)C(=O)c2cn(C)cc2C1=O
inactive: [1] > 100 µM | [2] > 100 µM | [3] > 100 µM | [4] > 100 µM | [5] > 100 µM | [17] > 100 µM | [6] > 100 µM | [7] > 100 µM | [8] > 100 µM | [9] > 100 µM | [10] > 100 µM | [11] > 100 µM | [12] > 100 µM | [13] > 100 µM | [14] > 100 µM | [15] > 100 µM | [16] > 100 µM

O=C(c1cc2ccccc2[nH]1)C(O)(c1cc2ccccc2[nH]1)c1cc2ccccc2[nH]1
inactive: [1] > 246 µM | [2] 129 µM | [3] > 246 µM | [4] > 246 µM | [5] > 246 µM | [17] > 246 µM | [6] > 246 µM | [7] > 246 µM | [8] 16.6 µM | [9] > 246 µM | [10] > 246 µM | [11] > 246 µM | [12] > 246 µM | [13] > 246 µM | [14] > 246 µM | [15] > 246 µM | [16] > 246 µM

CNc1ccc2ncccc2c1[N+](=O)[O-]
inactive: [1] > 100 µM | [2] > 100 µM | [3] > 100 µM | [4] > 100 µM | [5] > 100 µM | [17] > 100 µM | [7] > 100 µM | [8] > 100 µM | [9] > 100 µM | [10] > 100 µM | [12] > 100 µM | [13] > 100 µM | [14] > 100 µM | [15] > 100 µM | [16] > 100 µM
